Test results from patent publication US9427437B2, “Hypercholesterolemia and tendinous injuries” (The Trustees of the University of Pennsylvania, priority 2008, dated 2016).

Tests used:
[1] = test system: partial tear of the patellar tendon; assay: Patient case: oral atorvastatin for a partial tear of the patellar tendon in a hypercholesterolemic patient; type: in vivo, human; conditions: orally 20 mg once daily
Protocol: (§1) A person presents with a partial tear of the patellar tendon. Their orthopedist orders a standard lipid panel as part of their blood work. The orthopedist finds that the patient is hypercholesterolemic with a total cholesterol of almost 300 mg/DL. The orthopedist prescribes atorvastatin to be taken orally at a dose of 20 mg once daily.

[2] = test system: partial rupture of achilles tendon; assay: Patient case: oral rosuvastatin for a partial rupture of the achilles tendon in a hypercholesterolemic patient; type: in vivo, human; conditions: orally 10 mg once daily
Protocol: as §1, with “diabetic” for “person”, “rupture” for “tear”, “their achilles” for “the patellar”, “285” for “almost 300”, “rosuvastatin” for “atorvastatin”, “10” for “20”

SMILES: CC(C)c1c(C(=O)Nc2ccccc2)c(-c2ccccc2)c(-c2ccc(F)cc2)n1CC[C@@H](O)C[C@@H](O)CC(=O)O [atorvastatin]
- recovery from partial tear of the patellar tendon ([1]; hypercholesterolemic person): markedly improved
- cholesterol lowering ([1]; person, total cholesterol almost 300 mg/DL at presentation): lowering their cholesterol to acceptable levels

SMILES: CC(C)c1nc(N(C)S(C)(=O)=O)nc(-c2ccc(F)cc2)c1/C=C/[C@@H](O)C[C@@H](O)CC(=O)O [rosuvastatin]
- cholesterol lowering ([2]; diabetic, total cholesterol 285 mg/DL at presentation): lowering their cholesterol to acceptable levels
- recovery from partial rupture of achilles tendon ([2]; hypercholesterolemic diabetic): markedly improved
